Measured values published in patent US9201062B2, “Predicting toxicity of a compound over a range of concentrations” (CELLOMICS, INC., priority 2011, dated 2015).
Where a name gives a salt, the structure may show the parent alone.

Tests used:
[1] = tested on: Reactive oxygen species (ROS) levels in cells
Source text: Once imaging has been performed, automated image processing algorithms as are known in the art can be used in the imaging system to determine the measurements in the cell images.
The target i being evaluated was the normalized ROS response.
where μ is the mean of the normalized non-hepatotoxic compound values and σ is the standard deviation of the normalized non-hepatotoxic compound values.
As noted above, for ROS, the upper threshold may be all that is needed. […] The difficulty in compound toxicity measurement because of non-unidirectional response and/or because of incorrect EC50/IC50 calculation from a dose-response curve are avoided by establishing toxicity thresholds based on the negative controls and by flagging a compound as toxic only if its response goes beyond the determined thresholds at any concentration.
For each target, the minimal coefficient K of the deviation value from the mean of the non-hepatotoxic compound data can be calculated to include all the non-hepatotoxic compounds values between μ+K×σ and μ−K×σ values. These values are set respectively as the upper and lower toxicity thresholds for the target. As noted above, for each target both or only one of the thresholds can be used.
(§1) The normalized values from the hepatotoxic compounds (or compounds of interest) are compared with the threshold value determined above. The compound toxicity is determined by verifying whether the normalized value of the compound is outside the threshold value(s). […] Cell loss was determined to be toxic if the normalized value was less than the lower threshold value. Reactive oxygen species level was determined to be toxic if the respective normalized value was greater than the upper threshold value.

[2] = peak serum concentration of the drug; cited from earlier work
HepG2 cells = experiment: High-content imaging of HepG2 cells stained for nuclei, glutathione, ROS and mitochondria (FIG. 11); type: cell-based; settings: 25 Cmax, 24 hrs
Experimental: For routine culture of HepG2 cells, EMEM medium containing the following supplements can be used: 10% fetal bovine serum, 1 mM sodium pyruvate, 1× non-essential amino acids, 100 units/ml penicillin and 100 μg/ml streptomycin (EMEM complete medium).
Cells can be harvested by trypsinization, diluted into EMEM complete medium and cell density was determined. Cells are diluted to 2.0×10^5 cells/ml in EMEM complete medium. 100 μl of the cell suspension are added per well of the 96-well microplate to achieve 20,000 cells/well.
The cells were then stained with specific fluorescent dyes to detect each cellular target. Cell images were then obtained using the ArrayScan VTi Reader manufactured by Cellomics Inc., a subsidiary of Thermo Fisher Scientific Inc. Representative samples 230 of the cell images obtained during the assay are shown in FIG. 11. […] The images of the cells for the different targets look different for the two drugs; Troglitazone reduces the number of cells and mitochondrial membrane potential but […] reduced glutathione levels in HepG2 cells.

rat primary hepatocytes = experiment: Multiparametric high-content hepatotoxicity prediction assay on rat primary hepatocytes (FIG. 9 decision table); settings: 24 hours drug incubation, over concentration range, targets: cell number, DNA content, GSH, ROS, mitochondrial membrane potential
Source text: After drug treatment, the hepatic cells are stained with specific fluorescent materials to detect different cellular targets or properties whose changes are associated with cell health, as is known in the art. For example, in the exemplary embodiments discussed herein, as well as in the test data shown, the following five cellular responses are simultaneously monitored: • 1. Cell number (i.e., cell loss, cell density) • 2. Nuclear DNA content • 3. Reduced glutathione (GSH) levels in cells • 4. Reactive oxygen species (ROS) levels in cells • 5. Mitochondrial membrane potential changes
Otherwise the cell contains a “−”.
This corresponds to the number of target cells corresponding to the compound that contain a “+”.
For maintenance of rat primary hepatocytes, Williams E medium can be used containing the following supplements: 15 mM HEPES, 1% ITS+, 4 mM Glutamax, 0.1 μM dexamethasone, 50 units/ml penicillin and 50 μg/ml streptomycin (Hepatocyte maintenance medium). […]
For each target, the minimal coefficient K of the deviation value from the mean of the non-hepatotoxic compound data can be calculated to include all the non-hepatotoxic compounds values between μ+K×σ and μ−K×σ values. […]
as §1
The images were analyzed, as discussed above, to produce the data shown on FIG. 9. […] After 24 hours of drug incubation, the hepatocytes were stained and imaged on a Thermo Scientific ToxInsight HCS reader. The data for each target were normalized and analyzed based on the threshold calculated from the non-hepatotoxic compounds in the manner discussed above. […]

Structure (SMILES) | normalized ROS response relative to upper and lower toxicity thresholds [1] | 1 CMax [2] | other results
CC(=O)Oc1ccccc1C(=O)O [Aspirin] | between the upper and lower thresholds values | 0.995 µg/mL | 
CN1CCC(=C2c3ccccc3C=Cc3ccccc32)CC1 [Cyproheptadine HCl] |  | 30 µg/mL | 
Cc1c(C)c2c(c(C)c1O)CCC(C)(COc1ccc(CC3SC(=O)NC3=O)cc1)O2 (stereo not drawn) [Troglitazone] |  | 2.82 µg/mL | mitochondrial membrane potential (HepG2 cells): reduces; number of cells (HepG2 cells): reduces; reduced glutathione levels (HepG2 cells): increases
CCCCC1C(=O)N(c2ccccc2)N(c2ccccc2)C1=O [Phenylbutazone] |  | 150 µg/mL | 
CN(C)[C@@H]1C(O)=C(C(N)=O)C(=O)[C@@]2(O)C(O)=C3C(=O)c4c(O)cccc4[C@@](C)(O)[C@H]3C[C@@H]12 [Tetracycline] |  | 9.317 µg/mL | 
CO[C@@H]1[C@@H](OC(N)=O)[C@@H](O)[C@H](Oc2ccc3c(O)c(NC(=O)c4ccc(O)c(CC=C(C)C)c4)c(=O)oc3c2C)OC1(C)C [Novobiocin] | flagged as being toxic | 62.5 µg/mL | number of targets flagged as being toxic (of five monitored targets) (rat primary hepatocytes): five
CCn1cc(C(=O)O)c(=O)c2ccc(C)nc21 [Nalidixic Acid] |  | 30 µg/mL | 
CCN(CC)CCNc1ccc(CO)c2sc3ccccc3c(=O)c12 [Hycanthone] | flagged as being toxic |  | 
COc1ccc2[nH]cc(CCNC(C)=O)c2c1 [Melatonin] | between the upper and lower thresholds values | 0.00557 µg/mL | 
Cc1cccc(Nc2ccccc2C(=O)O)c1C [Mefenamic Acid] | flagged as being toxic | 6.5 µg/mL | 
CNCCC(Oc1ccc(C(F)(F)F)cc1)c1ccccc1 (stereo not drawn) [Fluoxetine] | between the upper and lower thresholds values | 0.015 µg/mL | number of targets flagged as being toxic (of five monitored targets) (rat primary hepatocytes): none
Clc1ccccc1CN1CCc2sccc2C1 [Ticlopidine] |  | 2.13 µg/mL | 
N#CC(C#N)=NNc1ccc(OC(F)(F)F)cc1 [FCCP] |  |  | number of targets flagged as being toxic (of five monitored targets) (rat primary hepatocytes): Four
O=C1CN(/N=C/c2ccc(-c3ccc([N+](=O)[O-])cc3)o2)C(O)=N1 [Dantrolene] |  | 1.24 µg/mL | 
O=c1n(CCCN2CCN(c3cccc(Cl)c3)CC2)nc2ccccn12 [Trazodone HCl] |  | 1.88 µg/mL | 
Cc1ccc(C)c(OCCCC(C)(C)C(=O)O)c1 [Gemfibrozil] |  | 46.4 µg/mL | 
CN(CCOc1ccc(CC2SC(=O)NC2=O)cc1)c1ccccn1 (stereo not drawn) [Rosiglitazone] |  | 0.373 µg/mL | 
